Reference: paper PMC11513923, “Discovery of ZLC491 as a Potent, Selective, and Orally Bioavailable CDK12/13 PROTAC Degrader” (Journal of Medicinal Chemistry, 2024)

Tests used:
Assay in all cases: TMT-labeled quantitative proteomics in MDA-MB-231 cells
Type in all cases: cell-based, Homo sapiens
Settings in all cases: 2 μM ZLC491 vs DMSO, 8 h
NME2 = tested on: NME2
Experimental: (§1) Figure 5 ZLC491 degraded CDK12/13 with high selectivity. (A) Global proteomic analysis of ZLC491 in MDA-MB-231 cells after 8 h treatment of DMSO or 2 μM ZLC491; (B) mass-spec quantification of CDKs changes; (C) immunoblotting of target protein degradation in samples for proteomic analysis.
(§2) MDA-MB-231 cells were seeded at 8 × 10^5 cells in 6 cm dishes 24 h before treating with 2 μM ZLC491 or DMSO in quadruplicate or triplicate for 8 h. Cell lysates were prepared by washing cells twice with cold PBS and adding 180 μL lysis buffer (10 mM HEPES, pH 7.0, 1% (w/v) SDS, 2 mM MgCl·6H2O supplemented with 0.1% BeyoZonase (Beyotime)) per dish. Samples were quantified using a micro-BCA protein assay kit (Thermo Fisher Scientific) and 600 μg of each sample was processed and digested using the filter aided sample preparation (FASP) method followed by alkylation with iodoacetamide and digestion with trypsin. The samples were then desalted using Oasis HLB C18 SPE cartridge column (Waters, WAT094225). The peptides were lyophilized and reconstituted, then 25 μg peptides of each sample were labeled with TMT 11-plex Isobaric Label Reagent Set (Thermo Fisher Scientific) as the manufacturer’s instructions. After labeling, the peptides from the 11 samples were pooled together. The pooled TMT 11-plex sample was fractionated using high pH reverse-phase chromatography on an XBridge peptide BEH column (130 Å, 3.5 μm, 2.1 × 150 mm, Waters) on an Ultimate 3000 HPLC system (Thermo Scientific/Dionex). […]
(§3) The fractions were analyzed sequentially on an Orbitrap Fusion Lumos Mass Spectrometer (Thermo Scientific) coupled to a NanoLC-1200 UHPLC system (Thermo Scientific) with C18 capillary column. […] MS3 precursor were fragmented by HCD and analyzed with Orbitrap at NCE 65, AGC 1E5, resolution 60000.
(§4) The raw MS data files for all 11 fractions were searched against the Uniprot-Human-Canonical database by Proteome Discoverer 2.0 for protein identification and TMT reporter ion quantitation. […]

B3GAT3 = tested on: B3GAT3
Experimental: as §1, §2, §3, §4

ARG2 = tested on: ARG2
Experimental: as §1, §2, §3, §4

N#Cc1ccc(N[C@H]2CC[C@H](N(C(=O)NCc3ccccc3)c3ccc(N4CCN(C5CCN(c6cc7c(cc6F)C(=O)N(C6CCC(=O)NC6=O)C7=O)CC5)CC4)cc3)CC2)nc1 (stereo partly drawn) [ZLC491, 3-Benzyl-1-((1r,4r)-4-((5-cyanopyridin-2-yl)amino)cyclohexyl)-1-(4-(4-(1-(2-(2,6-dioxopiperidin-3-yl)-6-fluoro-1,3-dioxoisoindolin-5-yl)piperidin-4-yl)piperazin-1-yl)phenyl)urea]
FC_4-91 (NME2) (NME2): 1.1277 | FC_4-91 (B3GAT3) (B3GAT3): 1.982 | FC_4-91 (ARG2) (ARG2): 1.14
